Measured values published in patent US8338434B2, “Inhibitors of Akt activity” (GlaxoSmithKline LLC, priority 2007, dated 2012).

Biological target: T1, full length AKT1 (Homo sapiens, UniProt P31749)
T1 construct: His tag (from vector pFastBacHTb; purified on Nickel Sepharose) (N); made in house; host or cells: baculovirus; Sf9 / T. ni insect cells
Assay: Full-Length AKT Enzyme Assay (substrate phosphorylation, SPA)
Type: biochemical
Settings: in at least one experimental run; pIC50 = -log(IC50), IC50 in molar units; 10 nM activated AKT enzyme, 4 uM ATP, 8 uM peptide; read-out: pIC50 value against full length AKT1 (converted)
Description: Cloning of Full-Length Human (FL) AKT1:
Full-length human AKT1 gene was amplified by PCR from a plasmid containing myristylated-AKT1-ER (gift from Robert T. Abraham, Duke University under MTA, described in Klippel et al. in Molecular and Cellular Biology 1998 Volume 18 p. 5699) using the 5′ primer: SEQ. ID NO: 2 5′ […] 3′ and the 3′ primer: SEQ. ID NO: 3 […] 3′. The 5′ primer included a BamHI site and the 3′primer included an XhoI site for cloning purposes. The resultant PCR product was subcloned in pcDNA3 as a BamHI/XhoI fragment. A mutation in the sequence (TGC) coding for a Cysteine^25 was converted to the wild-type AKT1 sequence (CGC) coding for an Arginine^25 by site-directed mutagenesis using the QuikChange® Site Directed Mutagenesis Kit (Stratagene). The AKT1 mutagenic primer: SEQ. ID NO: 4 5′ […] and selection primer: SEQ. […] For expression/purification purposes, AKT1 was isolated as a BamHI/XhoI fragment and cloned into the BamHI/XhoI sites of pFastbacHTb (Invitrogen).
Expression was done using the BAC-to-BAC Baculovirus Expression System from Invitrogen (catalog #10359-016). […]
Compounds of the present invention were tested for AKT 1, 2, and 3 protein serine kinase inhibitory activity in substrate phosphorylation assays. […] Substrate phosphorylation was detected by the following procedure. […]

T1 sequence (P31749 whole entry): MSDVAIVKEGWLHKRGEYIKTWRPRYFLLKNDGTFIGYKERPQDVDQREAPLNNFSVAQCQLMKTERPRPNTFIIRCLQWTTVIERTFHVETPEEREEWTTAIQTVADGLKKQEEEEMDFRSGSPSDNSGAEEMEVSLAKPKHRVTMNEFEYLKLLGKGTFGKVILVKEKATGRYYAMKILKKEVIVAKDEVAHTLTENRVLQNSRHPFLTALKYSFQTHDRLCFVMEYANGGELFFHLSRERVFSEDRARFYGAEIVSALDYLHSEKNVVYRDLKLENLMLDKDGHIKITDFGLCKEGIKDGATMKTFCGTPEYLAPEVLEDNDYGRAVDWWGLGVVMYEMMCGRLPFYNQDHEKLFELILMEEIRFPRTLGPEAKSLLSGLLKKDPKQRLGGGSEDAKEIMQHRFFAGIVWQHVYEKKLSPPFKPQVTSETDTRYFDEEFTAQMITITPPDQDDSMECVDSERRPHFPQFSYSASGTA

- IC50: 10 nM
Compound: Cn1nccc1-c1ccc(C(=O)NC(CN)Cc2ccccc2)cn1 (stereo not shown) [Example 2, N-[2-amino-1-(phenylmethyl)ethyl]-6-(1-methyl-1H-pyrazol-5-yl)-3-pyridinecarboxamide]
